In paper PMC3583241, “Hit identification of IKKβ natural product inhibitor” (BMC Pharmacology & Toxicology, 2013) one finds IC50 data, which are given here for one compound.

The experiment has as its target T1, IKKβ (Homo sapiens, UniProt O14920).
T1 construct: gene IKBKB; human recombinant IKKβ
T1 sequence (O14920 1-756): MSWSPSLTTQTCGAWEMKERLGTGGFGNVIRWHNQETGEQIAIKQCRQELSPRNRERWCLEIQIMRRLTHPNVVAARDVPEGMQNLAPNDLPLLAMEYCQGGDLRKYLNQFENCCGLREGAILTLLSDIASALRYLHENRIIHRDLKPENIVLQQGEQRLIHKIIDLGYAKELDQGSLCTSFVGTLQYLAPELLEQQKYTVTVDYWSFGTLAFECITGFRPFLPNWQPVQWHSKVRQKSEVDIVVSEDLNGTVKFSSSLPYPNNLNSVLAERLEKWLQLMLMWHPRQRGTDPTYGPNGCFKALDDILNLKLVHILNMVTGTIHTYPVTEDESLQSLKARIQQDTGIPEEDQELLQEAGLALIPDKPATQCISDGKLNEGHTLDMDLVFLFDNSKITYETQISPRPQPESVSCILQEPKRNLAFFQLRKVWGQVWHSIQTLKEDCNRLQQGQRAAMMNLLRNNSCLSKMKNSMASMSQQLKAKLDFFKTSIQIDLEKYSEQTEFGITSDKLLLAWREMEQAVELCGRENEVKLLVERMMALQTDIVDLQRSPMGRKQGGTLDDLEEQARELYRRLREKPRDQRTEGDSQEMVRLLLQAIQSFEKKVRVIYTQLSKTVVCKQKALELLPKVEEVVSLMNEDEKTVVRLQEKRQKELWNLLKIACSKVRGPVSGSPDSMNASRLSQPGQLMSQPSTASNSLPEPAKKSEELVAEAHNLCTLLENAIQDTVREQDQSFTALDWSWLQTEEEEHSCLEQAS
Kind of experiment: ELISA-based K-LISA IKKβ kinase assay with GST-IκBα substrate. It counts as biochemical.

Regarding `O=C(O)c1ccccc1C(=O)NCCC(c1ccccc1)c1ccco1` (stereo not shown) [compound 1, benzoic acid derivative (1)], the IC50 – broadly, the concentration that gives 50% inhibition – was ~50 µM.
